Experimental findings from PMC8490515, “Neuromedin B receptor stimulation of Cav3.2 T-type Ca^2+ channels in primary sensory neurons mediates peripheral pain hypersensitivity” (Theranostics, 2021) are described below.

In assay [1] the test system is phosphorylated AMPK (p-AMPK). The experiment in a line: Western blot of phosphorylated AMPK in TG cells. It is filed as cell-based, mouse. The following applies: Nmb exposure (100 nM) in TG cells. For orientation: Immunoblotting shows a protein as a band on a membrane.
In assay [2] the test system is transient outward K^+ channel (IA). Kind of assay: Transient outward A-type K+ currents (IA) in TG neurons. It is filed as cell-based, mouse. The note with it: 100 nM. The method, then: All the procedures performed in this study were carried out in accordance with NIH guidelines and were approved by the Institutional Animal Care and Use Committee of Soochow University. TG neurons were dissociated as previously described, [23]. Briefly, TGs were harvested from 8- to 10-week-old ICR mice of either sex, cut into small pieces and treated with 2 mg/mL collagenase D (Roche) for 20 min followed by 1.5 mg/mL trypsin (Sigma) at 37 °C for 15 min. Cells were dissociated via gentle trituration with fire-polished sterilized Pasteur pipettes and centrifuged through a 15% BSA gradient to remove debris and nonneuronal cells. TG neurons were resuspended in neurobasal A (Thermo Fisher) supplemented with B27 (Thermo Fisher) and transferred onto Matrigel-coated coverslips. Patch clamp recordings were conducted 2 to 6 h after plating. In shRNA-treated knockdown experiments, TG cells were replated onto coverslips 48 h after infection.
Standard whole-cell recordings were made at room temperature (22-23 °C) as described previously, [25]. Recording electrodes were pulled from borosilicate glass microcapillary tubes (Sutter Instruments) and had resistances from 3 to 5 MΩ when filled with internal solution. Recordings were obtained using a MultiClamp 700B amplifier (Axon Instruments). […]

The subject of assay [3] is mechanical hypersensitivity in mice. Kind of assay: von Frey test after intra-TG injection of Nmb. The assay is classed as in vivo, mouse. The method, then: Mice were housed on a 12 h light/dark cycle, maintained in a humidity- and temperature-controlled room with water available ad libitum and were acclimated to the experimenter for 2 d before the first behavioural observations. Experimenters were blinded to the treatment or genotypes of the mice. As described previously, [31], an Orofacial Stimulation Test (Ugo Basile, Italy) was used for the measurement of hypersensitivity to the mechanical stimulation of the trigeminal area. Briefly, the mice initially underwent one week of adaptation trainings after a 12 h fasting food period. Each mouse was then placed in a cage in which there was an Orofacial Stimulation Test system. After the mouse was given 10 min to familiarize itself with its environment, the drinking window was opened and the testing mouse was subsequently timed for 10 min to allow drinking the milk. The contact number and total duration of time the mouse spent acquiring the reward were analyzed with the ORO software.
For experiments that several time points are needed to be checked in 24 h, von Frey test was used, as orofacial stimulation test can be checked only once a day, [32]. For the von Frey test, the mice were placed in metal mesh boxes and allowed 30 min for habituation before examination. Mechanical hypersensitivity was assessed as described in previous studies, [33]. In brief, the threshold was assessed with a set of von Frey hairs (0.02-2.56 g, Stoelting) applied to the whisker pad in an ascending series of trials, with three separate von Frey stimulations applied per series. The threshold was determined when mice moved their heads away briskly and strongly from at least one of the three stimuli. Dixon's up-down method was used to determine the 50% probability of escape threshold. For thermal test, a heat stimulus was applied to the maxillary whisker pad skin by radiant heat (IITC Life Science). Heat sensitivity was expressed as head-withdrawal latency (HWL). The radiant heat intensity was adjusted so that basal HWL is between 10-15 s, with a cut-off of 18 s to prevent tissue damage. Chronic inflammatory pain was induced by subcutaneous injection of 20 μL of complete Freund's adjuvant (CFA) into the left side of the buccal pad. The drugs (Nmb, BIM23042, Z941, or TTA-P2) were applied through a percutaneous approach by injecting the TG with a 30 G needle inserted through the infraorbital foramen, infraorbital canal and foramen rotundum. The tip of the needle terminated at the medial part of the TG, and a volume of 5 μL reagent was slowly delivered, [34]. Mice received intra-TG injection of 5'-cholesteryl-modified and 6-FAM-modified Cav3.2 siRNA (Cav3.2-siRNA, 5 μg) or a scrambled negative control siRNA (NC-siRNA) (RiboBio, Guangzhou) 2 d after the CFA injection. siRNA was mixed with polyethyleneimine (PEI, Fermentas Inc.) for 10 min before being delivered. PEI was used as a delivery vehicle to prevent degradation and enhance cell membrane penetration of siRNAs, [36].

Turning to Neuromedin B [Nmb], in assay [1], the “level of phosphorylated AMPK” value is “markedly increased”. The “decrease of peak amplitude of IA” value in assay [2] was 22.3 ± 3.9%. For the same substance, the acute mechanical hypersensitivity entry in assay [3] (intra-TG 0.1 nmol) is listed as “no such effects”. Moreover, the acute mechanical hypersensitivity result in assay [3] (intra-TG 1 nmol or 5 nmol, n = 6 - 8 mice per group) is “significantly induced profound hypersensitivity to acute mechanical pain”. Also, in assay [3] (intra-TG 5 nmol), the “mechanical hypersensitivity, 5 nmol vs 1 nmol” value was “stronger effect than that of 1 nmol”; the “onset of mechanical hypersensitivity” value stood at 1 h; the “recovery from mechanical hypersensitivity” value amounted to 6 h; the “time at which mechanical hypersensitivity was maintained” value was 3 h.
